This is an account of results in patent US20140206534A1, “FORMULATION” (SYNGENTA LIMITED, priority 2011, published 2014).

Data set [1] in a line: Visual release rate test of Bitrex in water. Format: physicochemical. As to conditions: after 15 minutes; 0.4 mg agitated in 10 ml water. How it is done: 0.4 mg of sample was agitated in 10 ml of water and observed over 8 hours.
Data set [2] is described as follows: UV/Vis release rate measurement of Bitrex in water. The following applies: 100 mg in 40 ml water, shaken. Format: physicochemical. How it is done:
2 ml of the mixture was removed at each time interval for analysis.

The structures appear in SMILES notation.

On to `CC[N+](CC)(CC(=O)Nc1c(C)cccc1C)Cc1ccccc1` [Uncoated Bitrex, Denatonium benzoate], for which, in data set [1], the “visual observation of dissolution” value was “fully dissolved”. In addition, the “% release of Bitrex relative to the total content” value is listed as 99.6% in data set [2] (5 minutes) and 99.8% in data set [2] (15 minutes).
